# Reference: patent US9242941B2, “Alkyl, fluoroalkyl-1,4-benzodiazepinone compounds” (BRISTOL-MYERS SQUIBB COMPANY, priority 2012, dated 2016)
# pIC50: −log10 of the molar value.
# Key:
# [1] = test system: Human T-cell acute lymphoblastic leukemia cell line TALL-1; test: Human Tumor Xenograft Models in Mice: TALL-1; format: in vivo; details: for Antitumor Activity in TALL-1 (LCK), QD dosing / Antitumor Activity in TALL-1 (LCK), BID dosing: Log Cell Kill, oral administration, schedule QDx10, dose unit not given; for Antitumor Activity in TALL-1 (LCK), QD dosing: dose 20 (Ex 1, 52), 12 (Ex 10), 40 (Ex 40); for antitumor activity in the Human Tumor Xenograft Models in mice: oral administration (PO) either BID and/or QD, Table 24 (TALL-1); for Antitumor Activity in TALL-1 (LCK), BID dosing: dose 20 (Ex 35, 37)
# human Notch 1 = test: Notch-CBF1 Transactivation Assay (Notch 1); format: cell-based; details: read-out: Notch 1 IC50; Notch-CBF1 transactivation luciferase assay in transfected HeLa cells; some values are an average of N experiments
# Source text: (§1) Notch-CBF1 Transactivation Assay
# (§2) The Notch-CBF1 (C-promoter binding factor I) cell based transactivation assay is based on the ability of the released Notch intracellular domain fragments (NICDs) to function as transcription factors in conjunction with CBF1 and other nuclear factors. Luciferase assays were used to measure the antagonism of Notch-CBF1 transcriptional activity. HeLa cervical cancer cells are transiently co-transfected with pCDNA3.1/Hygro plasmids containing truncated Notch 1, Notch 2, Notch 3, or Notch 4 receptors and a PGL3 luciferase reporter vector containing 4 copies of CBF1 binding site. The cells were then tested for Notch-CBF1 activity in the absence or presence of test compounds. HeLa cells, maintained in DMEM (high glucose with HEPES), 1× glutamine/penicillin/streptomycin and 10% Fetal Bovine serum, were transiently transfected in a T175 Flask (4.5×10^6 cells/flask) using the Monster Transfection Kit (Minis #MIR2906) according to manufacturers specifications. Table 13 denotes respective DNA quantity for the transfections.
# (§3) Assay media (5 μL) containing test compounds in final concentrations ranging from 5 μM to 8.4×10^−5 μM (3 fold serial dilutions) were added to the cells and the cell plates were then incubated for 18 hours at 37° C. and 5% CO2. Control wells contained DMSO vehicle (total counts) or 0.5 μM of an in-house small molecule inhibitor (background counts). Duplicates were used for each sample. Luciferase activity was measured after a 20-minute incubation with 50 μl STEADY-GLO® luciferase reagents according to manufacturer's specifications (Promega, Cat. #E2550) and analyzed by Envision plate reader (PerkinElmer, Boston, Mass.).
# (§4) The antagonist effect of compounds was expressed as 100×[1−(average sample−average background)/(average total−average background)] where sample is the luciferase activity in the presence of test compound, background is equal to the luciferase activity in the presence of the small molecule inhibitor control and the total is signal induced in DMSO wells.
# human Notch 3 = test: Notch-CBF1 Transactivation Assay (Notch 3); format: cell-based; details: read-out: Notch 3 IC50; Notch-CBF1 transactivation luciferase assay in transfected HeLa cells; some values are an average of N experiments
# Source text: as §1, §2, §3, §4
# [2] = human metabolic stability half-life assay; details: microsomes, human liver microsomes
# Description: Metabolic Stability Half-Life Panel
# Incubation with Liver Microsomes
# [3] = test system: human triple negative breast carcinoma cell line MDA-MB-157; test: Human Tumor Xenograft Models in Mice: MDA-MB-157; format: in vivo; details: PO, QDx15 (10 day on-2 day off-5 day on); FIG. 14; result in words
# Description: (§5) Dosed orally; PO, QDx15 (10 day on-2 day off-5 day on). Each symbol represents the median tumor burden of a group of 8 mice.
# (§6) Human Tumor Xenograft Models in Mice
# (§7) Mice were fed food and water ad libitum.
# (§8) Preclinical Chemotherapy Trials
# (§9) Tumor growth inhibition is calculated as follows: […]
# (§10) In Vivo Antitumor Activity
# [4] = test system: human triple negative breast carcinoma cell line MDA-MB-468; test: Human Tumor Xenograft Models in Mice: MDA-MB-468; format: in vivo; details: PO, QDx15 (10 day on-2 day off-5 day on); FIG. 15; result in words
# Description: as §5, §6, §7, §8, §9, §10
# [5] = test system: human PAT70 pancreatic carcinoma cell line; test: Human Tumor Xenograft Models in Mice: PAT70; format: in vivo; details: PO, QDx15 (10 day on-2 day off-5 day on); FIG. 16; result in words
# Description: as §5, §6, §7, §8, §9, §10
# [6] = pH 7.4, CYP-mediated metabolic stability half life, NADPH-dependent
# [7] = pH 7.4, HLM (t1/2, min), CYP-mediated (NADPH-dependent), 0.5 μM compound, 45 min time course, some values are an average of N experiments
Structure (SMILES),"Antitumor Activity in TALL-1 (LCK), QD dosing [1]",antitumor activity in the Human Tumor Xenograft Models in mice ([1]; result in words),pIC50 (human Notch 1),pIC50 (human Notch 3),"half-life at 0.5 µM [2, 6] [min]","half-life at 0.5 µM [2, 7] [min]","Antitumor Activity in TALL-1 (LCK), BID dosing [1]","in vivo antitumor activity, TALL-1 xenograft ([1]; PO, QDx10, FIGS. 12-13, result in words)","in vivo antitumor activity, MDA-MB-157 xenograft [3]","in vivo antitumor activity, MDA-MB-468 xenograft [4]","in vivo antitumor activity, PAT70 xenograft [5]"
"CC(C)[C@H](N)C(=O)OCN1C(=O)[C@@H](NC(=O)[C@H](CCC(F)(F)F)[C@H](CC2CC2)C(N)=O)N=C(c2ccccc2)c2cccc(F)c21 [Example 52, ((3S)-3-(((2R)-2-((1S)-2-Amino-1-(cyclopropylmethyl)-2-oxoethyl)-5,5,5-trifluoropentanoyl)amino)-9-fluoro-2-oxo-5-phenyl-2,3-dihydro-1H-1,4-benzodiazepin-1-yl)methyl L-valinate]",5.7,showed antitumor activity,,,,,,,,,
"CCC[C@H](C(N)=O)[C@@H](CCC(F)(F)F)C(=O)N[C@H]1N=C(c2ccccc2)c2cccc(F)c2NC1=O [Example 37, (2R,3S)—N-((3S)-9-Fluoro-2-oxo-5-phenyl-2,3-dihydro-1H-1,4-benzodiazepin-3-yl)-3-propyl-2-(3,3,3-trifluoropropyl)succinamide]",,showed antitumor activity,8.36,7.95,≥ 30,43,2.0,,,,
"CCC[C@H](C(N)=O)[C@@H](CCC(F)(F)F)C(=O)N[C@H]1N=C(c2ccccc2)c2cccc(C(F)(F)F)c2NC1=O [Example 35, (2R,3S)—N-((3S)-2-Oxo-5-phenyl-9-(trifluoromethyl)-2,3-dihydro-1H-1,4-benzodiazepin-3-yl)-3-propyl-2-(3,3,3-trifluoropropyl)succinamide]",,showed antitumor activity,7.79,7.89,≥ 30,36,3.1,,,,
"Cc1cccc2c1NC(=O)[C@@H](NC(=O)[C@H](CCC(F)(F)F)[C@H](CC1CC1)C(N)=O)N=C2c1cccc(F)c1 [Example 10, (2R,3S)-3-(Cyclopropylmethyl)-N-((3S)-5-(3-fluorophenyl)-9-methyl-2-oxo-2,3-dihydro-1H-1,4-benzodiazepin-3-yl)-2-(3,3,3-trifluoropropyl)succinamide]",>2.8,showed antitumor activity,8.40,8.01,≥ 30,72,,,,,
"NC(=O)[C@@H](CC1CC1)[C@@H](CCC(F)(F)F)C(=O)N[C@H]1N=C(c2ccccc2)c2cccc(F)c2NC1=O [Example 1, (2R,3S)-3-(Cyclopropylmethyl)-N-((3S)-9-fluoro-2-oxo-5-phenyl-2,3-dihydro-1H-1,4-benzodiazepin-3-yl)-2-(3,3,3-trifluoropropyl)succinamide]",4.5,showed antitumor activity,8.38,8.21,≥ 30,85,,exhibited antitumor activity,exhibited antitumor activity,exhibited antitumor activity,exhibited antitumor activity
"CCC[C@H](C(N)=O)[C@@H](CCC(F)(F)F)C(=O)N[C@H]1N=C(c2ccccc2)c2cccc(OC)c2NC1=O [Example 40, (2R,3S)—N-((3S)-9-Methoxy-2-oxo-5-phenyl-2,3-dihydro-1H-1,4-benzodiazepin-3-yl)-3-propyl-2-(3,3,3-trifluoropropyl)succinamide]",1.4,showed antitumor activity,8.17,8.16,≥ 30,34,,,,,
"NC(=O)[C@@H](CC1CC1)[C@@H](CCC(F)(F)F)C(=O)N[C@H]1N=C(c2cccc(Cl)c2)c2cccc(F)c2NC1=O [Example 24, (2R,3S)—N-((3S)-5-(3-Chlorophenyl)-9-fluoro-2-oxo-2,3-dihydro-1H-1,4-benzodiazepin-3-yl)-3-(cyclopropylmethyl)-2-(3,3,3-trifluoropropyl)succinamide]",,,8.43,8.57,≥ 30,76,,,,,
"COc1cccc(C2=N[C@H](NC(=O)[C@H](CCC(F)(F)F)[C@H](CC3CC3)C(N)=O)C(=O)Nc3c(F)cccc32)c1 [Example 22, (2R,3S)-3-(Cyclopropylmethyl)-N-((3S)-9-fluoro-5-(3-methoxyphenyl)-2-oxo-2,3-dihydro-1H-1,4-benzodiazepin-3-yl)-2-(3,3,3-trifluoropropyl)succinamide]",,,7.89,7.90,≥ 30,32,,,,,
"Cc1cccc2c1NC(=O)[C@@H](NC(=O)[C@H](CCC(F)(F)F)[C@H](CC1CC1)C(N)=O)N=C2c1cccc(C(F)(F)F)c1 [Example 9, (2R,3S)-3-(Cyclopropylmethyl)-N-((3S)-9-methyl-2-oxo-5-(3-(trifluoromethyl)phenyl)-2,3-dihydro-1H-1,4-benzodiazepin-3-yl)-2-(3,3,3-trifluoropropyl)succinamide]",,,8.74,8.31,≥ 30,90,,,,,
"Cc1cccc2c1NC(=O)[C@@H](NC(=O)[C@H](CCC(F)(F)F)[C@H](CC1CC1)C(N)=O)N=C2c1ccc(F)cc1 [Example 12, (2R,3S)-3-(Cyclopropylmethyl)-N-((3S)-5-(4-fluorophenyl)-9-methyl-2-oxo-2,3-dihydro-1H-1,4-benzodiazepin-3-yl)-2-(3,3,3-trifluoropropyl)succinamide]",,,8.16,7.55,≥ 30,104,,,,,
